Measured values reported in patent US5462926A (Biomeasure, Inc., priority 1993, dated 1995).
Read-outs that look alike come from different tables or passages of the source. Where a SMILES comes first, the peptide text is derived from it. Bridges are numbered along the chain shown (N, C = ends). [ ]: non-standard residue; d: D form. 2Nal = N[C@@H](Cc1ccc2ccccc2c1)C(=O)O; d2Nal = N[C@H](Cc1ccc2ccccc2c1)C(=O)O

Legend:
[1] = biological target: T1, NMB receptors on C-6 cells (Rattus norvegicus, UniProt P24053); experiment: Binding of 125I-[D-Tyr0]NMB to C-6 glioblastoma cells; conditions: for Ki: Ki by Cheng method, read-out: Ki 125I-NMB Binding, NMB Receptor, C-6 Cells
T1 construct: endogenous in cells; host or cells: rat glioblastoma C-6 cells
T1 sequence (P24053 1-390): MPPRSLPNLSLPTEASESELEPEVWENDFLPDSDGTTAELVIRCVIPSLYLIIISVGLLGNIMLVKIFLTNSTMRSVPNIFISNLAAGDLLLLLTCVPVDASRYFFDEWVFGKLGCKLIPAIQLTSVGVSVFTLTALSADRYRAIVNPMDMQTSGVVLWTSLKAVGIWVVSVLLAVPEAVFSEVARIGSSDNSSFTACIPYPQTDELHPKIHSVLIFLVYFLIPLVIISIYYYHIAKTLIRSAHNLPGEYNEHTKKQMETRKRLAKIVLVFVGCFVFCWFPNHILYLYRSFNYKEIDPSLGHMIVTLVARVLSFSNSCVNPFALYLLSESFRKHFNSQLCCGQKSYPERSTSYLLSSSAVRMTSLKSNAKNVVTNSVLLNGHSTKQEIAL
In short: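 Disaggregated rat C-6 glioblastoma cells (15×10^6/ml) or NMB-R-transfected cells (2×10^6/ml) were incubated with 75 pM 125I-[D-Tyr0]NMB for 60 min at 22° C in HEPES binding buffer with 0.2% BSA, pH 7.4. Values are saturable binding: total minus binding in the presence of excess unlabelled NMB.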

rat NMB receptor = biological target: T2, rat NMB receptor (Rattus norvegicus, UniProt P24053); experiment: Binding of 125I-[D-Tyr0]NMB to NMB-R transfected BALB 3T3 cells; conditions: for fold decrease in NMB receptor affinity compared with cyclo SS-octa (#1): structure-function comparison from Table 1
T2 construct: a full length NMB-preferring bombesin receptor clone generated from rat esophagus; expressed in transfected cells
T2 sequence (P24053 1-390): T1 sequence (P24053 1-390)

[2] = biological target: T3, GRP receptors on rat pancreatic acini (Rattus norvegicus, UniProt P52500); experiment: Binding of 125I-[Tyr4]bombesin to pancreatic acini; conditions: read-out: Ki 125I-[Tyr4]Bn Binding, GRP Receptor, Rat Pancreatic Acini; Ki by Cheng method
T3 construct: from tissue; host or cells: dispersed pancreatic acini
T3 sequence (P52500 whole entry): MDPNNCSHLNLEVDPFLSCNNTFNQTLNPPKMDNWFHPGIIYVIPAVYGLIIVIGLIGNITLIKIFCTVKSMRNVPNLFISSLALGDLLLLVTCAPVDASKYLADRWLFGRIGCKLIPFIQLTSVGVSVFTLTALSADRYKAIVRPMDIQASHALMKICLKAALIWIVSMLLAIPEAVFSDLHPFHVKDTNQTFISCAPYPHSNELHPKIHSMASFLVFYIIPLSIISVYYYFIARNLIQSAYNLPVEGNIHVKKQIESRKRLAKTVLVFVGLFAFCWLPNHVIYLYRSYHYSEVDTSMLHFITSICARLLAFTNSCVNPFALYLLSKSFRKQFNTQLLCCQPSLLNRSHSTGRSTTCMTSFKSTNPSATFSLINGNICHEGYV
From the text: Nonsaturable binding was<10% of total binding in all experiments.

GRP receptor = GRP receptor (Rattus norvegicus, UniProt P52500); experiment: Amylase release from rat pancreatic acini (alone or Bn-stimulated); assay type: cell-based; design: from tissue; host or cells: dispersed pancreatic acini; conditions: for Amylase Release, analog Alone (10 μM): analog 10 μM alone, control 4 ± 1; for Amylase Release, analog Plus Bn (0.3 nM): analog 10 μM plus Bn 0.3 nM, Bn without analog 15 ± 1; for IC50: read-out: IC50 Amylase Release, GRP Receptor, Rat Pancreatic Acini
Chain of GRP receptor (P52500 whole entry): as above
In short: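 Rat pancreatic acini incubated 30 min at 37° C without additives or with somatostatin octapeptide analog, Bn, NMB or combinations. Amylase release expressed as percent of total cellular amylase released during incubation; for inhibition, somatostatin analog (10 μM) tested on 0.3 nM Bn-stimulated release.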

NMB receptor = biological target: T4, NMB receptor (Rattus norvegicus, UniProt P24053); experiment: NMB membrane receptor assay, 125I-NMB, rat olfactory bulb membranes; assay type: binding; design: Membranes were prepared from rat olfactory bulb (NMB membrane receptor assay); from tissue; host or cells: rat olfactory bulb membranes; conditions: for Ki: Cheng method, unit inferred, read-out: affinity, 125I-NMB, Rat Olfactory bulb membranes (neuromedin B receptors)
T4 sequence (P24053 1-390): T1 sequence (P24053 1-390)

[3] = NMB-R transfected BALB 3T3 cells, Ki by Cheng method, read-out: Ki 125I-NMB Binding, NMB Receptor, Transfected Cells

| Structure (SMILES) | Ki [1] [nM] | Kd ([1]; read-out: Kd, inhibition of 125I-[D-Tyr0]NMB binding, glioblastoma C-6 cells) [nM] | Kd (rat NMB receptor; NMB-R transfected 3T3 cells, read-out: Kd, inhibition of 125I-[D-Tyr0]NMB binding, NMB-R transfected 3T3 cells) [nM] | Ki (rat NMB receptor; [3]) [nM] | concentration causing complete inhibition of 125I-NMB binding (rat NMB receptor; NMB-R transfected cells) [µM] | concentration causing detectible inhibition of 125I-NMB binding (rat NMB receptor; NMB-R transfected cells) [µM] | type of antagonism (rat NMB receptor; NMB-R transfected cells, 0.5 μM) | IC50 (rat NMB receptor; NMB-R transfected cells, read-out: half-maximal inhibition of 125I-NMB binding) [nM] | Ki [2] [nM] | effect on Bn-stimulated amylase release (GRP receptor; 0.3 nM Bn) | Amylase Release, analog Alone (10 μM) (GRP receptor) [% total] | Amylase Release, analog Plus Bn (0.3 nM) (GRP receptor) [% total] | IC50 (GRP receptor) [nM] | Ki (NMB receptor) [nM] | fold greater affinity for NMB receptors than mu opioid receptors (NMB receptor; membranes, Table 4) [fold] | fold by which cyclo SS-octa is more potent than the analog, 125I-NMB binding (rat NMB receptor; NMB-R transfected cells) [fold] | fold decrease in NMB receptor affinity compared with cyclo SS-octa (#1) (rat NMB receptor) [fold] | fold higher affinity for NMB receptors than somatostatin receptors (NMB receptor; membranes, Table 4) [fold] | Ki (rat NMB receptor; NMB-R transfected cells, value or range given for a group, read-out: K1, 125I-NMB binding to NMB-R transfected cells (text)) [nM] |
| --- | --- | --- | --- | --- | --- | --- | --- | --- | --- | --- | --- | --- | --- | --- | --- | --- | --- | --- | --- |
| CC(C)[C@@H]1NC(=O)[C@H](CCCCN)NC(=O)[C@@H](Cc2c[nH]c3ccccc23)NC(=O)[C@H](Cc2ccc(O)cc2)NC(=O)[C@@H](NC(=O)[C@H](N)Cc2ccc3ccccc3c2)CSSC[C@@H](C(=O)N[C@@H](Cc2ccc3ccccc3c2)C(N)=O)NC1=O [Analog #1, H2 -D-Nal-Cys-Tyr-D-Trp-Lys-Val-Cys-Nal-NH2] (H-[d2Nal]CY[dW]KVC[2Nal]-NH2; disulfide 2-7) | 59 ± 9 | 59 | 216 | 216 ± 36 | 3 | 0.1 | competitive antagonist | 216 | 18300 ± 2110 | did not inhibit | 5 ± 1 | 15 ± 2 | > 10000 | 43 ± 9 | 10 | – | – | – | – |
| CC(C)[C@@H]1NC(=O)[C@H](Cc2c[nH]cn2)NC(=O)[C@@H](Cc2c[nH]c3ccccc23)NC(=O)[C@H](Cc2ccc(O)cc2)NC(=O)[C@@H](NC(=O)[C@H](N)Cc2ccc3ccccc3c2)CSSC[C@@H](C(=O)N[C@@H](Cc2ccc3ccccc3c2)C(N)=O)NC1=O [Analog #14] (H-[d2Nal]CY[dW]HVC[2Nal]-NH2; disulfide 2-7; N-terminus assumed) | 4940 ± 930 | – | – | 9860 ± 1290 | – | – | – | – | > 10000 | – | 2 ± 1 | 13 ± 1 | > 10000 | 470 ± 240 | – | 45 | 50 | 3 | – |
| C[C@@H](O)[C@@H]1NC(=O)[C@H](CCCCN)NC(=O)[C@@H](Cc2c[nH]c3ccccc23)NC(=O)[C@H](Cc2ccc(O)cc2)NC(=O)[C@@H](NC(=O)[C@H](N)Cc2ccccc2)CSSC[C@@H](C(=O)N[C@@H](Cc2ccc3ccccc3c2)C(N)=O)NC1=O [Analog #7, H2 -D-phe-Cys-Tyr-D-Trp-Lys-Thr-Cys-Nal-NH2] (H-[dF]CY[dW]KTC[2Nal]-NH2; disulfide 2-7) | 1450 ± 78 | – | – | 4360 ± 328 | – | – | – | – | 31000 ± 4650 | – | 3 ± 1 | 16 ± 1 | > 10000 | 740 ± 160 | – | 18 | – | – | 3900 to 4400 |
| C[C@@H](O)[C@H](NC(=O)[C@@H]1CSSC[C@H](NC(=O)[C@H](N)Cc2ccc3ccccc3c2)C(=O)N[C@@H](Cc2ccc(O)cc2)C(=O)N[C@H](Cc2c[nH]c3ccccc23)C(=O)N[C@@H](CCCCN)C(=O)N[C@@H](Cc2ccc3ccccc3c2)C(=O)N1)C(N)=O [Analog #2, H2 -D-Nal-Cys-Tyr-D-Trp-Lys-Nal-Cys-Thr-NH2] | 226 ± 36 | – | – | 772 ± 94 | – | – | – | – | 16300 ± 3820 | – | 5 ± 1 | 13 ± 1 | > 10000 | 85 ± 20 | – | – | 4 | – | – |
